Experimental data as given in paper PMC5050145 (European journal of nuclear medicine and molecular imaging, 2016).
Several values for one entry are separate records, joined by “and”; a condition that tells them apart may be missing. Identical values can stand only once.

Columns and labels:
[1] = molecular target: PSMA; settings: read-out: Ki value towards PSMA; complexed to natGa; cell-based assay; cited from earlier work
[2] = system: LNCaP cells; settings: complexed to natGa; cited from earlier work
[3] = Stability of the final product in formulation; assay type: physicochemical; settings: 3 h; buffered solution at pH 6.8
[4] = In-vitro stability in mouse blood plasma; assay type: in vitro ADME; settings: 2 h, 37 °C
[5] = In-vitro stability in human blood plasma; assay type: in vitro ADME; settings: 2 h, 37 °C
[6] = Biodistribution by microPET/CT imaging in C57BL6 mice; assay type: in vivo; settings: 1 h post-injection, microPET
[7] = Dosimetry: mouse microPET biodistribution extrapolated to humans; assay type: in vivo, C57BL6 mice; settings: for effective dose: administered activity of 200 MBq

## O=C(O)CCc1ccc(O)c(CN(CCN(CC(=O)O)Cc2cc(CCC(=O)NCCCCCC(=O)NCCCC[C@H](NC(=O)N[C@@H](CCC(=O)O)C(=O)O)C(=O)O)ccc2O)CC(=O)O)c1 [PSMA-11, Glu-urea-Lys (Ahx)-HBED-CC]
[1]
  Ki: 12 ± 2.8 nM
[2]
  uptake in PSMA-positive LNCaP cells: readily taken up

## O=C([O-])CN(CCN(CC(=O)[O-])Cc1cc(CCC(=O)NCCCCCC(=O)NCCCC[C@H](NC(=O)N[C@@H](CCC(=O)O)C(=O)O)C(=O)O)ccc1O)Cc1cc(CCC(=O)O)ccc1O.[18F-].[Al+3] [18F-PSMA-11]
[3]
  radiochemical purity in stability test: > 97%
[4]
  intact compound: 91%
[5]
  intact compound: 94%
[6]
  tissue uptake, bladder: 77.4 ± 39.1 %ID/g
  tissue uptake, kidneys: 119.3 ± 16.5 %ID/g
[7]; Bone, Method 1
  Mean RT (time-integrated activity coefficient) scaled to humans: 0.045 ± 0.013 h
[7]; Bone, Method 2
  Mean RT (time-integrated activity coefficient) scaled to humans: 0.114 ± 0.028 h
[7]; Method 1
  mean extrapolated effective dose per unit activity: 8.59 × 10^−3 ± 7.46 × 10^−4 mSv/MBq
  effective dose: 1.72 mSv and 1.7 mSv
[7]; Method 2
  effective dose: 1.25 mSv
[7]; Method 2, kidneys dose-limiting, 21CFR361.1
  maximum administered human activity limit: 1,742 MBq
[7]; Muscle, Method 2
  Mean RT (time-integrated activity coefficient) scaled to humans: 0.077 ± 0.018 h
[7]; Tot. Kidney, Method 1
  Mean RT (time-integrated activity coefficient) scaled to humans: 0.141 ± 0.033 h
[7]; Tot. Kidney, Method 2
  Mean RT (time-integrated activity coefficient) scaled to humans: 0.042 ± 0.009 h
[7]; most stringent dosimetric calculations
  feasible injected activities: up to 0.56 GBq
[7]; second value, printed Method 1
  mean extrapolated effective dose per unit activity: 6.23 × 10^−3 ± 5.74 × 10^−4 mSv/MBq
